This note sets out measurements from patent publication US7785875B2, “Polynucleotide encoding HCV epitopes which can bind to various HLA supertypes, immunogenic composition comprising same and method of inducing an HCV-specific immune response using same” (priority 2004, dated 2010).

This assay has as its system PBMCs derived from HCV-infected patients. In words: Ex vivo IFN-γ ELISPOT assay. Format: cell-based, human. Conditions: for responsiveness of positive reaction: positive = 30 or more SFCs per 2×10^5 PBMCs; for number of HLA types the epitope was positive to: of 9 HLA types found in the patients (A2, A24, A26, A3, B7, B15, B27, B44, B51).

On to “C1: HCV epitope peptide of 9 amino acids, NS3, region 1338 (TAGARLVVL) [Peptide C1]”, for which the “number of HLA types the epitope was positive to” value was found to be 6. The “responsiveness of positive reaction” value (HLA-A2 type patients) came out at 11.5%. The “responsiveness of positive reaction” value (HLA-A3 type patients) is 10.0%. In addition, the “responsiveness of positive reaction” value (HLA-A24 type patients) came to 4.18%. Besides, the “responsiveness of positive reaction” value (HLA-A26 type patients) came to 0%. For the same substance, under “HLA-A molecule A2”, the “Number of patients showing positive response/Number of patients having specific MHC type” value is listed as 3/26. In addition, the “Number of patients showing positive response/Number of patients having specific MHC type” value (HLA-A molecule A3) is 3/30. For the same substance, the “Number of patients showing positive response/Number of patients having specific MHC type” value (HLA-A molecule A24) is recorded as 1/24. Also, the “Number of patients showing positive response/Number of patients having specific MHC type” value (HLA-A molecule A26) is 0/1. Besides, the “responsiveness of positive reaction” value (HLA-B7 type patients) came to 11.7%. Further, under “HLA-B15 type patients”, the “responsiveness of positive reaction” value is 0%. The “responsiveness of positive reaction” value (HLA-B27 type patients) is recorded as 0%. Also, the “responsiveness of positive reaction” value (HLA-B44 type patients) turned out to be 22.2%. The “responsiveness of positive reaction” value (HLA-B51 type patients) is given as 20.0%. Also, where the note is “HLA-B molecule B7”, the “Number of patients showing positive response/Number of patients having specific MHC type” value is listed as 2/17. For the same substance, the “Number of patients showing positive response/Number of patients having specific MHC type” value (HLA-B molecule B15) is given as 0/9. For the setting “HLA-B molecule B27”, the “Number of patients showing positive response/Number of patients having specific MHC type” value was 0/4. The “Number of patients showing positive response/Number of patients having specific MHC type” value (HLA-B molecule B44) is on record as 2/9. Also, the “Number of patients showing positive response/Number of patients having specific MHC type” value (HLA-B molecule B51) is listed as 2/10.

As to “C4: HCV epitope peptide of 9 amino acids, NS2, region 894 (AILGPLMVF) [Peptide C4]”, the “number of HLA types the epitope was positive to” value was 7. Moreover, the “responsiveness of positive reaction” value (HLA-A2 type patients) was found to be 26.3%. Besides, for the setting “HLA-A3 type patients”, the “responsiveness of positive reaction” value was 23.5%. Also, the “responsiveness of positive reaction” value (HLA-A24 type patients) was found to be 29.1%. Besides, the “responsiveness of positive reaction” value (HLA-A26 type patients) amounted to 0%. The “Number of patients showing positive response/Number of patients having specific MHC type” value (HLA-A molecule A2) was 7/26. Where the note is “HLA-A molecule A3”, the “Number of patients showing positive response/Number of patients having specific MHC type” value was 7/30. Besides, the “Number of patients showing positive response/Number of patients having specific MHC type” value (HLA-A molecule A24) is reported as 7/24. In addition, where the note is “HLA-A molecule A26”, the “Number of patients showing positive response/Number of patients having specific MHC type” value is listed as 0/1. Besides, under “HLA-B7 type patients”, the “responsiveness of positive reaction” value was found to be 29.1%. The “responsiveness of positive reaction” value (HLA-B15 type patients) turned out to be 44.4%. Moreover, where the note is “HLA-B27 type patients”, the “responsiveness of positive reaction” value was found to be 0%. In addition, under “HLA-B44 type patients”, the “responsiveness of positive reaction” value came out at 22.2%. Also, the “responsiveness of positive reaction” value (HLA-B51 type patients) was 50.0%. Further, the “Number of patients showing positive response/Number of patients having specific MHC type” value (HLA-B molecule B7) is 5/17. In addition, the “Number of patients showing positive response/Number of patients having specific MHC type” value (HLA-B molecule B15) is given as 4/9. In addition, the “Number of patients showing positive response/Number of patients having specific MHC type” value (HLA-B molecule B27) is 0/4. For the same substance, under “HLA-B molecule B44”, the “Number of patients showing positive response/Number of patients having specific MHC type” value is reported as 2/9. Besides, where the note is “HLA-B molecule B51”, the “Number of patients showing positive response/Number of patients having specific MHC type” value is recorded as 5/10.

With “L1: HCV epitope peptide of 9 amino acids, Core, region 118 (NLGKVIDTL) [Peptide L1]”, the “number of HLA types the epitope was positive to” value was 6. The “responsiveness of positive reaction” value (HLA-A2 type patients) is reported as 11.5%. The “responsiveness of positive reaction” value (HLA-A3 type patients) was 10.0%. For the setting “HLA-A24 type patients”, the “responsiveness of positive reaction” value was found to be 8.3%. Besides, the “responsiveness of positive reaction” value (HLA-A26 type patients) was 0%. Besides, the “Number of patients showing positive response/Number of patients having specific MHC type” value (HLA-A molecule A2) is 3/26. The “Number of patients showing positive response/Number of patients having specific MHC type” value (HLA-A molecule A3) is given as 3/30. Moreover, the “Number of patients showing positive response/Number of patients having specific MHC type” value (HLA-A molecule A24) was 2/24. For the same substance, where the note is “HLA-A molecule A26”, the “Number of patients showing positive response/Number of patients having specific MHC type” value is given as 0/1. The “responsiveness of positive reaction” value (HLA-B7 type patients) is on record as 11.7%. Also, where the note is “HLA-B15 type patients”, the “responsiveness of positive reaction” value was found to be 0%. Further, the “responsiveness of positive reaction” value (HLA-B27 type patients) was found to be 0%. Besides, under “HLA-B44 type patients”, the “responsiveness of positive reaction” value was 33.3%. Further, the “responsiveness of positive reaction” value (HLA-B51 type patients) came to 10.0%. The “Number of patients showing positive response/Number of patients having specific MHC type” value (HLA-B molecule B7) was 2/17. Further, where the note is “HLA-B molecule B15”, the “Number of patients showing positive response/Number of patients having specific MHC type” value is 0/9. The “Number of patients showing positive response/Number of patients having specific MHC type” value (HLA-B molecule B27) is recorded as 0/4. Further, the “Number of patients showing positive response/Number of patients having specific MHC type” value (HLA-B molecule B44) is on record as 3/9. For the same substance, the “Number of patients showing positive response/Number of patients having specific MHC type” value (HLA-B molecule B51) was 1/10.

With “L2: HCV epitope peptide of 9 amino acids, E2, region 632 (YVGGVEHRL) [Peptide L2]”, the “number of HLA types the epitope was positive to” value amounted to 8. In addition, the “responsiveness of positive reaction” value (HLA-A2 type patients) stood at 15.3%. Besides, the “responsiveness of positive reaction” value (HLA-A3 type patients) is given as 13.3%. The “responsiveness of positive reaction” value (HLA-A24 type patients) stood at 12.5%. Further, where the note is “HLA-A26 type patients”, the “responsiveness of positive reaction” value was 0%. Moreover, the “Number of patients showing positive response/Number of patients having specific MHC type” value (HLA-A molecule A2) is 4/26. For the same substance, the “Number of patients showing positive response/Number of patients having specific MHC type” value (HLA-A molecule A3) was 4/30. In addition, where the note is “HLA-A molecule A24”, the “Number of patients showing positive response/Number of patients having specific MHC type” value is 3/24. The “Number of patients showing positive response/Number of patients having specific MHC type” value (HLA-A molecule A26) is given as 0/1. Moreover, the “responsiveness of positive reaction” value (HLA-B7 type patients) is listed as 5.8%. Moreover, under “HLA-B15 type patients”, the “responsiveness of positive reaction” value is on record as 22.2%. The “responsiveness of positive reaction” value (HLA-B27 type patients) was 25.0%. The “responsiveness of positive reaction” value (HLA-B44 type patients) was 11.1%. In addition, the “responsiveness of positive reaction” value (HLA-B51 type patients) is on record as 20.0%. The “Number of patients showing positive response/Number of patients having specific MHC type” value (HLA-B molecule B7) was 1/17. Besides, the “Number of patients showing positive response/Number of patients having specific MHC type” value (HLA-B molecule B15) is 2/9. Also, the “Number of patients showing positive response/Number of patients having specific MHC type” value (HLA-B molecule B27) is reported as 1/4. The “Number of patients showing positive response/Number of patients having specific MHC type” value (HLA-B molecule B44) is reported as 1/9. Moreover, where the note is “HLA-B molecule B51”, the “Number of patients showing positive response/Number of patients having specific MHC type” value is given as 2/10.

In the case of “L6: HCV epitope peptide of 9 amino acids, E2, region 628 (KVRMYVGGV) [Peptide L6]”, the “number of HLA types the epitope was positive to” value is 7. In addition, the “responsiveness of positive reaction” value (HLA-A2 type patients) is listed as 15.3%. The “responsiveness of positive reaction” value (HLA-A3 type patients) is recorded as 10.0%. For the same substance, the “responsiveness of positive reaction” value (HLA-A24 type patients) is 8.3%. The “responsiveness of positive reaction” value (HLA-A26 type patients) was 0%. In addition, for the setting “HLA-A molecule A2”, the “Number of patients showing positive response/Number of patients having specific MHC type” value is 4/26. Also, for the setting “HLA-A molecule A3”, the “Number of patients showing positive response/Number of patients having specific MHC type” value is 3/30. In addition, for the setting “HLA-A molecule A24”, the “Number of patients showing positive response/Number of patients having specific MHC type” value was 2/24. Besides, the “Number of patients showing positive response/Number of patients having specific MHC type” value (HLA-A molecule A26) is 0/1. Besides, under “HLA-B7 type patients”, the “responsiveness of positive reaction” value is 11.7%. Further, the “responsiveness of positive reaction” value (HLA-B15 type patients) was 11.1%. Where the note is “HLA-B27 type patients”, the “responsiveness of positive reaction” value came to 0%. Besides, the “responsiveness of positive reaction” value (HLA-B44 type patients) is recorded as 11.1%. The “responsiveness of positive reaction” value (HLA-B51 type patients) is recorded as 30.0%. The “Number of patients showing positive response/Number of patients having specific MHC type” value (HLA-B molecule B7) is 2/17. Under “HLA-B molecule B15”, the “Number of patients showing positive response/Number of patients having specific MHC type” value was 1/9. The “Number of patients showing positive response/Number of patients having specific MHC type” value (HLA-B molecule B27) was 0/4. The “Number of patients showing positive response/Number of patients having specific MHC type” value (HLA-B molecule B44) is given as 1/9. Moreover, the “Number of patients showing positive response/Number of patients having specific MHC type” value (HLA-B molecule B51) was 3/10.

For the substance “L7: HCV epitope peptide of 9 amino acids, NS2, region 883 (ELIFDITKL) [Peptide L7]”, the “number of HLA types the epitope was positive to” value stood at 8. The “responsiveness of positive reaction” value (HLA-A2 type patients) amounted to 19.2%. Where the note is “HLA-A3 type patients”, the “responsiveness of positive reaction” value turned out to be 10.0%. For the same substance, where the note is “HLA-A24 type patients”, the “responsiveness of positive reaction” value came to 12.5%. Moreover, the “responsiveness of positive reaction” value (HLA-A26 type patients) was determined as 0%. Moreover, the “Number of patients showing positive response/Number of patients having specific MHC type” value (HLA-A molecule A2) was 5/26. For the same substance, the “Number of patients showing positive response/Number of patients having specific MHC type” value (HLA-A molecule A3) is 3/30. Further, the “Number of patients showing positive response/Number of patients having specific MHC type” value (HLA-A molecule A24) is reported as 3/24. Further, the “Number of patients showing positive response/Number of patients having specific MHC type” value (HLA-A molecule A26) was 0/1. Moreover, for the setting “HLA-B7 type patients”, the “responsiveness of positive reaction” value is 17.6%. The “responsiveness of positive reaction” value (HLA-B15 type patients) came to 22.2%. In addition, the “responsiveness of positive reaction” value (HLA-B27 type patients) worked out at 25.0%. In addition, the “responsiveness of positive reaction” value (HLA-B44 type patients) turned out to be 11.1%. Further, for the setting “HLA-B51 type patients”, the “responsiveness of positive reaction” value is listed as 20.0%. For the same substance, for the setting “HLA-B molecule B7”, the “Number of patients showing positive response/Number of patients having specific MHC type” value was 3/17. In addition, under “HLA-B molecule B15”, the “Number of patients showing positive response/Number of patients having specific MHC type” value is reported as 2/9. Besides, the “Number of patients showing positive response/Number of patients having specific MHC type” value (HLA-B molecule B27) is 1/4. Besides, where the note is “HLA-B molecule B44”, the “Number of patients showing positive response/Number of patients having specific MHC type” value is 1/9. In addition, for the setting “HLA-B molecule B51”, the “Number of patients showing positive response/Number of patients having specific MHC type” value was 2/10.
